Consider 17 molecules from patent publication US8114866B2, “Derivatives of 1-piperazine- and 1-homopiperazine-carboxylates, preparation method thereof and use of same as inhibitors of the FAAH enzyme” (Sanofi-Aventis, priority 2003, dated 2012).

For series [1], the target named is T1, enzyme FAAH (Fatty Acid Amido Hydrolase) (Mus musculus, UniProt O08914).
T1 construct: The membrane homogenates are prepared extemporaneously by homogenizing the tissues with a Polytron machine; from tissue; host or cells: mouse brain (minus cerebellum) membrane homogenate
T1 sequence (O08914 1-579): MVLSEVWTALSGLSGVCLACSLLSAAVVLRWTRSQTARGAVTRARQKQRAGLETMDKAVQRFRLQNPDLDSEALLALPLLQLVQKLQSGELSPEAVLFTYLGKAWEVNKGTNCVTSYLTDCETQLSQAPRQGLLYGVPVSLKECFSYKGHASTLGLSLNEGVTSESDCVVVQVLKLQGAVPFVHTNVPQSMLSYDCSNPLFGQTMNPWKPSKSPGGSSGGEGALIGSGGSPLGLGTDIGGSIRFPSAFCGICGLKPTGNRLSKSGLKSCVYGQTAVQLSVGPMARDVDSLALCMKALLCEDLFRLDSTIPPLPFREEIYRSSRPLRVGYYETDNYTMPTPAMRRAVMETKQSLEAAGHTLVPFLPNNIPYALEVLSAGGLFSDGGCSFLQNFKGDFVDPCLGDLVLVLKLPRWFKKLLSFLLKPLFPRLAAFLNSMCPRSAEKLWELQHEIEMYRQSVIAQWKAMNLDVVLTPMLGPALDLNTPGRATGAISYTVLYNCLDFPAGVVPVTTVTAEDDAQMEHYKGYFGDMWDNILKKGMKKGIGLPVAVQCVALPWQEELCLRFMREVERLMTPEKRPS
As to the kind of experiment: radioenzymatic test of FAAH inhibition (hydrolysis of anandamide [ethanolamine 1-3H], mouse brain membrane homogenates). The class given is biochemical. The note with it: anandamide 10 μM, 15 minutes at 25° C., read-out: IC50 (concentration inhibiting 50% of the control enzymatic activity of FAAH). The method, then: The compounds of the invention were subjected to pharmacological tests to determine their inhibitory effect on the enzyme FAAH (Fatty Acid Amido Hydrolase).
Thus, mouse brains (minus the cerebellum) are removed and stored at −80° C. The membrane homogenates are prepared extemporaneously by homogenizing the tissues with a Polytron machine in 10 mM Tris-HCl buffer (pH 8) containing 150 mM NaCl and 1 mM EDTA. The enzymatic reaction is then performed in 70 μl of buffer containing fatty-acid-free bovine serum albumin (1 mg/ml). The various test compounds at different concentrations, anandamide [ethanolamine 1-^3H] (specific activity of 15-20 Ci/mmol) diluted to 10 μM with cold anandamide, and the membrane preparation (400 μg of thawed tissue per test) are successively added. After 15 minutes at 25° C., the enzymatic reaction is quenched by adding 140 μL of chloroform/methanol (2:1). The mixture is stirred for 10 minutes and then centrifuged for 15 minutes at 3500×g. An aliquot (30 μL) of the aqueous phase containing the ethanolamine [1-^3H] is counted by liquid scintillation.

In another series the test system is male OF1 mice. The series is described as follows: test of analgesia: abdominal stretching induced by PBQ (phenylbenzoquinone) i.p. The class given is in vivo. To be noted: 1 mg/kg p.o. at 2 hours, PBQ 2 mg/kg i.p. How it is done:
It is thus seen that the compounds according to the invention have inhibitory activity on the enzyme FAAH. The in vivo activity of the compounds of the invention was evaluated in a test of analgesia.
Thus, the intraperitoneal (i.p.) administration of PBQ (phenylbenzoquinone, 2 mg/kg in a 0.9% sodium chloride solution containing 5% ethanol) to male OF1 mice weighing 25 to 30 g causes abdominal stretching, on average 30 twists or contractions in the period from 5 to 15 minutes after injection. The test compounds are administered orally as a 0.5% suspension in Tween 80, 60 minutes or 120 minutes before the administration of PBQ. Under these conditions, the most powerful compounds of the invention reduce the number of stretches induced by PBQ by 35 to 70%, in a dosage range of between 1 and 30 mg/kg.

By melting point is commonly meant the temperature, or range, at which the solid turns liquid. Molecule `Cc1ccc(-c2ccc([N+](=O)[O-])cc2)cc1` [Compound 36] yielded a melting point of 197 to 198 °C.
The same measure, in the same setting: in the case of `Cc1cc(F)cc2c1OCCC2` [Compound 15] it was 189 to 190 °C; in that of `CNC(=O)COC(=O)N1CCN(c2ccc(CC(C)C)cn2)CC1` [Compound 63, 2-(methylamino)-2-oxoethyl 4-[5-(2-methylpropyl)-2-pyridyl]-1-piperazinecarboxylate], 127 to 129 °C.
On the same count and under the same terms, in the case of `CNC(=O)COC(=O)N1CCN(c2ccc(-c3ccc(C(F)(F)F)cc3)cn2)CC1` [Compound 79, 2-(methylamino)-2-oxoethyl 4-{5-[4-(trifluoromethyl)phenyl]-2-pyridyl}-1-piperazinecarboxylate] it was 206 to 209 °C.
Molecule `CNC(=O)COC(=O)N1CCN(c2ccc(CC(C)C)nc2)CC1` [Compound 66, 2-(methylamino)-2-oxoethyl 4-[6-(2-methylpropyl)-3-pyridyl]-1-piperazinecarboxylate] gave a melting point of 87 to 89 °C.
Still for that read-out and setting: in the case of `CNC(=O)COC(=O)N1CCN(c2ccc(-c3cccc(C(F)(F)F)c3)nc2)CC1` [Compound 85, 2-(methylamino)-2-oxoethyl 4-{6-[3-(trifluoromethyl)phenyl]-3-pyridyl}-1-piperazinecarboxylate] it was 146 to 150 °C.
`CNC(=O)COC(=O)N1CCN(c2ccc(-c3ccc(Cl)cc3)cc2)CC1` [Compound 34]: the IC50 in series [1] stood at 20 nM.
For `CNC(=O)COC(=O)N1CCN(c2ccc(-c3cccc(C(F)(F)F)c3)cn2)CC1` [Compound 76, 2-(methylamino)-2-oxoethyl 4-{5-[3-(trifluoromethyl)phenyl]-2-pyridyl}-1-piperazinecarboxylate], the melting point was 158 to 160 °C. For the same molecule, the IC50 in series [1] turned out to be 290 nM. For the same molecule, the “Reduction of the number of stretches (%)” value with male OF1 mice was −47 (a) %.
Turning to `Cc1ccc(-c2ccc(Cl)cc2)cn1` [Compound 98], the melting point was 204 to 206 °C.
In the case of `CNC(=O)COC(=O)N1CCCN(c2ccc(-c3ccc(OC(F)(F)F)cc3)cn2)CC1` [Compound 103, 2-(methylamino)-2-oxoethyl 4-(5-{4-[(trifluoromethyl)oxy]phenyl}-2-pyridyl)-1,4-diazepane-1-carboxylate], the melting point is 191 to 193 °C.
`NC(=O)COC(=O)N1CCN(c2ccc(-c3cccc(C(F)(F)F)c3)nc2)CC1` [Compound 86, 2-amino-2-oxoethyl 4-{6-[3-(trifluoromethyl)phenyl]-3-pyridyl}-1-piperazinecarboxylate] registered a melting point of 155 to 157 °C.
On to `CNC(=O)COC(=O)N1CCN(c2ccc(-c3cccc(C(F)(F)F)c3)cc2)CC1` [Compound 37, 2-(methylamino)-2-oxoethyl 4-[3′-(trifluoromethyl)-4-biphenylyl]-1-piperazinecarboxylate], for which the melting point was 129 to 130 °C. Moreover, in series [1], the IC50 was 190 nM. Moreover, the “Reduction of the number of stretches (%)” value in the series on male OF1 mice was −57 (a) %.
The corresponding values for `CNC(=O)COC(=O)N1CCN(c2ccc(-c3ccc(OC(F)(F)F)cc3)cc2)CC1` [Compound 44, 2-(methylamino)-2-oxoethyl 4-{4′-[(trifluoromethyl)oxy]-4-biphenyl}-1-piperazinecarboxylate] are 187 to 189 °C, 7 nM and −53 (a) %.
In the case of `CNC(=O)COC(=O)N1CCN(c2ccc(-c3ccc(OC(F)(F)F)cc3)cn2)CC1` [Compound 83, 2-(methylamino)-2-oxoethyl 4-(5-{4-[(trifluoromethyl)oxy]phenyl}-2-pyridyl)-1-piperazinecarboxylate], the melting point lay within 188 to 190 °C. The IC50 in series [1] turned out to be 12 nM.
`Cc1ccc(-c2ccc(Cl)cc2)cn1` [Compound 75] displayed a melting point of 203 to 206 °C.
Consider `CCOc1ccc(-c2ccc(N3CCN(C(=O)OCC(=O)NC)CC3)cc2)cc1` [Compound 43], for which the IC50 in series [1] is 44 nM.
For the molecule `CNC(=O)COC(=O)N1CCN(c2ccc(-c3cccc(C(F)(F)F)c3)nn2)CC1` [Compound 87, 2-(methylamino)-2-oxoethyl 4-{6-[3-(trifluoromethyl)phenyl]-3-pyridazinyl}-1-piperazinecarboxylate], the melting point was in the range of 151 to 153 °C.
